The source of these data is patent US6916797B2, “α-arylethylpiperazine derivatives as neurokinin antagonists” (UCB, S.A., priority 2000, dated 2005).

For assay [1], the system named is verapamil-sensitive L-type Ca2+ binding site. The note with it: cited from earlier work.
Assay [2] addresses T1, NK1 receptors (Homo sapiens, UniProt P25103). Conditions: cited from earlier work.
For assay [3] the following is noted: in vivo; cited from earlier work.
For assay [4], the system named is isolated rat aorta contracted by 100 mM KCl. Kind of assay: Effect of compound on isolated rat aorta contracted by 100 mM KCl. Conditions: 10^−5 M; contraction by 100 mM KCl. The procedure:
Rat thoracic aorta depolarized by 100 mM KCl develops a contraction induced by an influx of Ca^2+ into the smooth muscle cell. An inhibition of this contraction could predict a Ca^2+ antagonist activity.
The method was adapted from Polster P. et al., J. Pharmacol. Exp. Ther. (1990), 255, 593: rings of thoracic aorta were prepared from male Wistar rats (250-400 g) and mounted under an optimal resting tension of 2 g in 10 ml organ baths containing modified Krebs' solution (NaCl 112 mM, NaHCO3 25 mM, KCl 5 mM, MgSO4 1.2 mM, CaCl2 2.5 mM, KH2PO4 1 mM and glucose 11.5 mM, pH 7.4). The bathing solution was maintained at a temperature of 37° C. and gassed with 95% O2 and 5% CO2. Isometric contractions were measured with a force transducer connected to an amplifier. A computer system was used to control data acquisition and fluid circulation through electrovalves. Drugs were manually injected into the bath.
Each ring was allowed to equilibrate for 60 min in the modified Krebs' solution. […] After obtaining two reproducible control contractions, a 3rd contraction was induced and the test compound was added to the bathing medium for 2 hours. Only preparation in which the contractions were matched were used. Each tissue received only one concentration of the test compound. Appropriate control experiments were conducted in order to test the effect of the solvant.
To normalize data, the change in tension due to the drug was compared to the change of tension due to the solvant and expressed as percentage of the induced relaxation of the initial contraction. Raw data were processed by a computer system and the pD′2 value was calculated following the method of Van Rossum J. M. et al., Arch. Int. Pharmacodyn. Ther. (1963), 143, 299.

Assay [5] relates to verapamil binding site of the L-type calcium channel. Kind of assay: Inhibition of [3H]D888 binding to the verapamil binding site of the L-type calcium channel (rat cerebral cortex membranes). The note with it: 10 μmol/l of test substance. The protocol:
200-250 g male Sprague-Dawley rats are sacrificed by decapitation. Cerebral cortices are quickly dissected on ice and homogenized in a 20 mmol/l Tris-HCl (pH 7.4) buffer containing 250 mmol/l sucrose (buffer A). The homogenate is centrifuged at 30,000 g for 15 min at 4° C. The resulting crude membrane pellet is resuspended in a 50 mmol/l Tris-HCl (pH 7.4) buffer and incubated 15 min at 37° C. before being centrifuged at 30,000×g for 15 min at 4° C. After two more washes under the same conditions, the final pellet is resuspended in buffer A at a protein concentration ranging from 15 to 25 mg/ml and stored in liquid nitrogen.
Binding experiments are essentially performed according to Reynolds J. et al., J. Pharmacol. Exp. Ther. (1986), 237, 731-738. (1986) with slight modifications.
Membranes (120-175 μg/assay) are incubated at 25° C. for 60 min in 0.5 ml of a 50 mmol/l Tris-HCl buffer (pH 7.4) containing 2 mmol/l MgCl2, 0.2 to 0.4×10-9 mol/l of [^3H]D888 (85 Ci/mmol; Amersham, Belgium) and 10 μmol/l of the test substance. The non specific binding (NSB) is defined as the residual binding observed in the presence 10 μM verapamil. Membrane-bound and -free radioligands are separated by rapid filtration through glass fiber filters (equivalent to Whatman GF/C or GF/B; VEL, Belgium) presoaked in 0.1% polyethyleneimine to reduce non specific binding. Samples and filters are rinsed by at least 6 ml of 50 mmol/l Tris-HCl (pH 7.4) buffer. […] The radioactivity trapped onto the filters is counted by liquid scintillation in a β-counter.
The inhibition of the radioligand specific binding is calculated as follows: [formula] • where BI and Bo represent the binding observed in the presence and absence of the test substance respectively; and • BNS is the non specific binding.
Data analysis is performed by a computerized non linear curve fitting method using a set of equations describing several binding models assuming competitive interactions between ligands (Weiland G. A. and P. B. Molinoff Life Science (1981), 29, 313-330; Molinoff P. et al. (1981) Life Sci., 29, 427-443).

Assay [6] concerns the target T1, NK1 receptors. Kind of assay: Binding of [4,5-3H-Leu10] substance P to human recombinant NK1 receptors expressed in CHO cell membranes. Also on record: host or cells: CHO cells. Conditions: pIC50 = -log IC50, concentration inhibiting by 50% the specific binding of [4,5-3H] substance P; tested as the free base/salt given in c1.
The conditions of assay [7]: after oral administration; cited from earlier work.

What is called IC50 is the midpoint of a concentration-inhibition curve.

T1 sequence (P25103 whole entry): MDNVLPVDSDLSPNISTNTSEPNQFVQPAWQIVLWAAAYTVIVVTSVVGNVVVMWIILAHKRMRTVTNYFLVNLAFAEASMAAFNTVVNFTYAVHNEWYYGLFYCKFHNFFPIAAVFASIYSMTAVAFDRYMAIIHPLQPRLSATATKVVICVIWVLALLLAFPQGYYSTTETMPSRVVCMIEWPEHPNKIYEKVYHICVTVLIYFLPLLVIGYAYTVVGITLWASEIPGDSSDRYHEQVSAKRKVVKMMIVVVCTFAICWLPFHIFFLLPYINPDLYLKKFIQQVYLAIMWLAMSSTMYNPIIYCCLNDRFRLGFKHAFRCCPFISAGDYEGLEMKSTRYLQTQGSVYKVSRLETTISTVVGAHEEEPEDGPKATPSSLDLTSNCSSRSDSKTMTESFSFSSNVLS

Consider `COc1ccccc1CN[C@H]1C2CCN(CC2)[C@H]1C(c1ccccc1)c1ccccc1` [CP-96,345], for which the “affinity for / interaction with the verapamil-sensitive L-type Ca2+ binding site” value in assay [1] is recorded as “significant affinity”. For the same compound, on NK1 receptors [2], the “selectivity for NK1 receptors with respect to NK2 and NK3 receptors” value is recorded as “good selectivity”.

Regarding `COc1ccccc1CN[C@H]1CCCN[C@H]1c1ccccc1` [CP-99,994], the “affinity for / interaction with the verapamil-sensitive L-type Ca2+ binding site” value in assay [1] is recorded as “lower interaction”. Besides, in assay [3], the “outcome of first phase II clinical trials for asthma” value was “unsuccessful”. The “selectivity for NK1 receptors with respect to NK2 and NK3 receptors” value at NK1 receptors [2] was “good NK1 selectivity”.

In the case of `FC(F)(F)c1cc(COC[C@@H](c2ccccc2)N2CCN(CCCCc3nnn[nH]3)CC2)cc(C(F)(F)F)c1` [Compound 299], in assay [4], the “Result: effect of compound on isolated rat aorta contracted by 100 mM KCl” value (from here on “Result: effect of compound”) was “inactive à 10^−5 M”. For the same compound, in assay [5], the “% inhibition of [3H]D888 binding to the verapamil binding site of the L-type calcium channel” value (“% inhibition … of the L-type calcium channel” for short) was “+ (+: inhibition comprised between 20 and 50%)”. Moreover, the concentration for half-maximal inhibition (IC50) at NK1 receptors [6] was 15.8 nM.

As to `FC(F)(F)c1cc(COCC(c2ccccc2)N2CCN(CCOCc3nnn[nH]3)CC2)cc(C(F)(F)F)c1` (stereo not shown) [Compound 300], in assay [4], the “Result: effect of compound” value was “inactive à 10^−5 M”. Moreover, the “% inhibition … of the L-type calcium channel” value in assay [5] was “+ (+: inhibition comprised between 20 and 50%)”. Further, the IC50 at NK1 receptors [6] is 31.6 nM.

Turning to `Fc1ccc(C(COCc2cc(C(F)(F)F)cc(C(F)(F)F)c2)N2CCN(CCCCc3nnn[nH]3)CC2)cc1` (stereo not shown) [Compound 301], the “Result: effect of compound” value in assay [4] was “inactive à 10^−5 M”. Moreover, the “% inhibition … of the L-type calcium channel” value in assay [5] is “+ (+: inhibition comprised between 20 and 50%)”. The IC50 on NK1 receptors [6] was 15.8 nM.

For `CC(OCC(c1ccccc1)N1CCN(CCCCc2nnn[nH]2)CC1)c1cc(C(F)(F)F)cc(C(F)(F)F)c1` (stereo not shown) [Compound 303], the “Result: effect of compound” value in assay [4] was “inactive à 10^−5 M”. For the same compound, the “% inhibition … of the L-type calcium channel” value in assay [5] is “+ (+: inhibition comprised between 20 and 50%)”. In addition, the IC50 on NK1 receptors [6] is 5.01 nM.

On to `O=C(O)C1CCC(N2CCN(C(COCc3cc(C(F)(F)F)cc(C(F)(F)F)c3)c3ccccc3)CC2)CC1` (stereo not drawn) [Compound 312, cis- or trans-4-{4-[2-(3,5-Bis-trifluoromethyl-benzyloxy)-1-phenyl-ethyl]-piperazin-1-yl}-cyclohexanecarboxylic acid], for which the “Result: effect of compound” value in assay [4] was “inactive à 10^−5 M”. The “% inhibition … of the L-type calcium channel” value in assay [5] is 0 (0: inhibition < 20%). For the same compound, the IC50 at NK1 receptors [6] was 25.1 nM.

On to `COc1ccccc1CC(=N)N1C[C@@H]2C(=O)CCC(c3ccccc3)(c3ccccc3)[C@@H]2C1` [RP-67,580], for which the NK1 affinity result on NK1 receptors [2] is reported as “some NK1 affinity”.

Consider `COc1ccccc1[C@H](C)C(=O)N1C[C@@H]2[C@H](C1)C(c1ccccc1)(c1ccccc1)CC[C@@]2(O)c1ccccc1OC` [RP-100,893], for which, in assay [7], the “activity in clinical trials for the treatment of migraine” value is recorded as “no better than placebo activity”.
